This assay deals with P1534 leukemia ip, CD2F1 mice, survival T/C. The assay is described as follows: NCI In Vivo Anticancer Drug Screen. Data for tumor model P1534 Leukemia (intraperitoneal) in CD2F1 (CDF1) mice. The settings on record: endpoint: mean survival time, higher = longer survival. How it is done: The antitumor activity of compounds was measured in mice bearing transplantable tumors. Survival or tumor size were measured and the results are expressed as the measurement made in the treated group (T) divided by the measurement made in the vehicle treated control group (C). The tumor model used in this assay is P1534 Leukemia (intraperitoneal) in CD2F1 (CDF1) mice

[1] abbreviates: dose: 7.5 mg/kg/injection, schedule: Q01DX010 (ip), vehicle: saline.
Where [2] appears, read: dose: 15.0 mg/kg/injection, schedule: Q01DX010 (ip), vehicle: saline.
Where [3] appears, read: dose: 30.0 mg/kg/injection, schedule: Q01DX010 (ip), vehicle: saline.
Where [4] appears, read: dose: 12.5 mg/kg/injection, schedule: Q01DX010 (ip), vehicle: saline.
Where [5] appears, read: dose: 25.0 mg/kg/injection, schedule: Q01DX010 (ip), vehicle: saline.
Setting [6] is: dose: 50.0 mg/kg/injection, schedule: Q01DX010 (ip), vehicle: saline.
Setting [7] is: dose: 100.0 mg/kg/injection, schedule: Q01DX010 (ip), vehicle: saline.

Several values for one entry are separate records, joined by “and”; a condition that tells them apart may be missing. Identical values can stand only once. Toxic doses and inconclusive results are not listed.

Turning to `CC[C@]1(O)C[C@H]2CN(CCc3c([nH]c4ccccc34)[C@@](C(=O)OC)(c3cc4c(cc3OC)N(C=O)[C@H]3[C@@](O)(C(=O)OC)[C@H](OC(C)=O)[C@]5(CC)C=CCN6CC[C@]43[C@@H]65)C2)C1`, the T/C is 97 % of control (dose: 0.02 mg/kg/injection, schedule: Q01DX010 (ip), vehicle: saline); 86 % of control (dose: 0.03 mg/kg/injection, schedule: Q01DX010 (ip), vehicle: saline); 100 % of control (dose: 0.05 mg/kg/injection, schedule: Q01DX010 (ip), vehicle: water); 156 % of control (dose: 0.1 mg/kg/injection, schedule: Q01DX010 (ip), vehicle: water); 160 % of control and 259 % of control and 306 % of control (dose: 0.13 mg/kg/injection, schedule: Q02DX008 (ip), vehicle: saline); 119 % of control and 181 % of control and 234 % of control (dose: 0.15 mg/kg/injection, schedule: Q## X004 (ip), vehicle: saline). Besides, the T/C reads like this: (dose: 0.16 mg/kg/injection, schedule: Q## X032 (ip), vehicle: saline) 208 % of control; (dose: 0.2 mg/kg/injection, schedule: Q01DX010 (ip), vehicle: water) 305 % of control; (dose: 0.2 mg/kg/injection, schedule: Q02DX008 (ip), vehicle: saline) 221 % of control and 270 % of control and 290 % of control; (dose: 0.22 mg/kg/injection, schedule: Q## X004 (ip), vehicle: saline) 231 % of control and 242 % of control and 270 % of control; (dose: 0.24 mg/kg/injection, schedule: Q## X032 (ip), vehicle: saline) 187 % of control and 193 % of control and 212 % of control; (dose: 0.3 mg/kg/injection, schedule: Q02DX008 (ip), vehicle: saline) 298 % of control and 302 % of control and 352 % of control. For the same compound, the T/C by setting is: (dose: 0.35 mg/kg/injection, schedule: Q## X004 (ip), vehicle: saline) 256 % of control and 273 % of control and 304 % of control; (dose: 0.36 mg/kg/injection, schedule: Q## X032 (ip), vehicle: saline) 234 % of control and 241 % of control and 282 % of control; (dose: 0.44 mg/kg/injection, schedule: Q02DX008 (ip), vehicle: saline) 154 % of control and 197 % of control and 358 % of control; (dose: 0.53 mg/kg/injection, schedule: Q## X004 (ip), vehicle: saline) 270 % of control and 344 % of control and 366 % of control; (dose: 0.54 mg/kg/injection, schedule: Q## X032 (ip), vehicle: saline) 274 % of control and 275 % of control and 335 % of control; (dose: 0.8 mg/kg/injection, schedule: Q## X004 (ip), vehicle: saline) 283 % of control and 357 % of control. In addition, the T/C was 190 % of control and 218 % of control and 92 % of control (dose: 0.8 mg/kg/injection, schedule: Q## X032 (ip), vehicle: saline); 152 % of control (dose: 1.2 mg/kg/injection, schedule: Q## X004 (ip), vehicle: saline); 92 % of control (dose: 1.2 mg/kg/injection, schedule: Q## X032 (ip), vehicle: saline); 188 % of control and 237 % of control (dose: 1.45 mg/kg/injection, schedule: Q01DX001 (ip), vehicle: saline); 294 % of control (dose: 1.45 mg/kg/injection, schedule: Q## X001 (ip), vehicle: saline); 159 % of control and 188 % of control and 212 % of control (dose: 1.5 mg/kg/injection, schedule: Q01DX001 (ip), vehicle: saline). For the same compound, the T/C by setting is: (dose: 1.8 mg/kg/injection, schedule: Q## X004 (ip), vehicle: saline) 100 % of control; (dose: 2.9 mg/kg/injection, schedule: Q01DX001 (ip), vehicle: saline) 158 % of control; (dose: 2.9 mg/kg/injection, schedule: Q## X001 (ip), vehicle: saline) 297 % of control; (dose: 26.0 micrograms/kg/injection, schedule: Q01DX010 (ip), vehicle: saline) 123 % of control and 208 % of control; (dose: 27.0 micrograms/kg/injection, schedule: Q01DX015 (ip), vehicle: saline) 167 % of control and 173 % of control; (dose: 40.0 micrograms/kg/injection, schedule: Q01DX015 (ip), vehicle: saline) 161 % of control and 240 % of control. Further, the T/C is 221 % of control and 226 % of control (dose: 60.0 micrograms/kg/injection, schedule: Q01DX015 (ip), vehicle: saline); 215 % of control and 228 % of control and 260 % of control (dose: 90.0 micrograms/kg/injection, schedule: Q01DX015 (ip), vehicle: saline); 221 % of control and 281 % of control and 297 % of control (dose: 135.0 micrograms/kg/injection, schedule: Q01DX015 (ip), vehicle: saline); 196 % of control and 233 % of control and 340 % of control (dose: 200.0 micrograms/kg/injection, schedule: Q01DX015 (ip), vehicle: saline); 181 % of control and 240 % of control (dose: 300.0 micrograms/kg/injection, schedule: Q01DX010 (ip), vehicle: saline); 200 % of control (dose: 300.0 micrograms/kg/injection, schedule: Q01DX015 (ip), vehicle: saline).
In the case of `C/C=C1\CN2C3C[C@H]1C(C(=O)OC)[C@H]2Cc1c3[nH]c2ccccc12` (some centres not stated), the T/C runs as follows: under setting [1], 100 % of control; under setting [2], 93 % of control; under setting [3], 93 % of control.
`CC(=O)Nc1c(Cl)cc2c(c1Cl)Cc1cc([N+](=O)[O-])ccc1-2`: the T/C was 107 % of control (dose: 15.6 mg/kg/injection, schedule: Q01DX010 (ip), vehicle: saline); 107 % of control (dose: 31.3 mg/kg/injection, schedule: Q01DX010 (ip), vehicle: saline); 107 % of control and 100 % of control (dose: 62.5 mg/kg/injection, schedule: Q01DX010 (ip), vehicle: saline); 107 % of control (dose: 125.0 mg/kg/injection, schedule: Q01DX010 (ip), vehicle: saline).
Take `Nc1nncs1`: the T/C under setting [1] is 114 % of control.
Consider `C/C=C1\CNC2Cc3c([nH]c4ccccc34)C(=O)CC1C2C(=O)OC` (configuration not stated), for which the T/C is 93 % of control under setting [4], 103 % of control under setting [5], 96 % of control under setting [6] and 93 % of control under setting [7].
As to `CC[C@]12C=CCN3CC[C@@]4(c5ccc(OC)cc5N(C)[C@H]4[C@@](O)(C(=O)OC)[C@@H]1O)[C@@H]32`, the T/C reads like this: (dose: 3.75 mg/kg/injection, schedule: Q01DX010 (ip), vehicle: saline) 93 % of control; under setting [1], 100 % of control; under setting [2], 93 % of control; under setting [3], 100 % of control; under setting [6], 96 % of control; under setting [7], 92 % of control.
As to `COc1ccc(Cc2nccc3cc(OC)c(OC)cc23)cc1OC`, the T/C was 100 % of control (dose: 10.0 mg/kg/injection, schedule: Q01DX010 (ip), vehicle: saline); 100 % of control (dose: 20.0 mg/kg/injection, schedule: Q01DX010 (ip), vehicle: saline); 100 % of control (dose: 40.0 mg/kg/injection, schedule: Q01DX010 (ip), vehicle: saline); 100 % of control (dose: 80.0 mg/kg/injection, schedule: Q01DX010 (ip), vehicle: saline).
In the case of `CS(=O)(=O)OCCC(=O)N1CCN(C(=O)CCOS(C)(=O)=O)CC1`, the T/C reads like this: under setting [5], 160 % of control; under setting [6], 150 % of control; under setting [7], 270 % of control.
Take `CN(C)/N=N/c1nc[nH]c1C(N)=O`: the T/C (dose: 6.25 mg/kg/injection, schedule: Q01DX010 (ip), vehicle: saline) was 100 % of control; the T/C under setting [4] was 107 % of control; the T/C under setting [5] was 103 % of control; the T/C under setting [6] was 107 % of control.
Consider `CC(C)=CCN=C(N)N`, for which the T/C reads like this: under setting [4], 103 % of control; under setting [5], 106 % of control.

For the origin of these results see PubChem BioAssay AID316 (DTP/NCI, 2004).
